{"source": "patent US20160319367A1", "about": "“MEANS AND METHODS FOR TYPING A BREAST CANCER PATIENT AND ASSIGNING THERAPY BASED ON THE TYPING” (STICHTING HET NEDERLANDS KANKER INSTITUUT-ANTONI VAN …, priority 2013, published 2016)", "key": {"ZR-75-1 cells [1]": {"test_system": "ZR-75-1 cells", "test": "RNA-seq global gene expression analysis in ZR-75-1 cells", "type": "cell-based, human", "details": "hormone depletion for 72 hours, treated for 48 hours, RNAseq, p<0.05", "description": "Transcriptome sequencing analysis of the cell line ZR-75-1 with stable USP9X knockdown or a control vector were performed using RNA-Seq. The reads (14-30 million 50 bp single-end) were mapped to the human reference genome (hg19) using TopHat (Trapnell et al., 2009. Bioinformatics 25: 1105-1127), which allows to span exon-exon splice junctions. TopHat was supplied with a known set of gene models (Ensembl version 64). The open-source tool HTSeq-Count was used to obtain gene expressions. This tool generates a list of the total number of uniquely mapped sequencing reads for each gene that is present in the provided Gene Transfer Format (GTF) file. In order to identify differentially expressed genes, the random sampling model in the R package […] al., 2010. Bioinformatics 26: 136-8.28) was used. […] The input of this method is the absolute number of reads for a gene, which is the output of HTSeq-count. Genes with no expression across both samples in the comparison were discarded from the dataset. The expression levels of the remaining genes were added with 1 in order to avoid negative values after log 2 transformation during the normalization step within this method. […] We therefore asked whether USP9X knockdown in tamoxifen-treated cells would also give rise to a typical estradiol-responsive gene set. […]"}, "[2]": {"details": "cited from earlier work"}, "ZR-75-1 cells [3]": {"test_system": "ZR-75-1 cells", "test": "Colony formation / proliferation assay in ZR-75-1 cells", "type": "cell-based, human", "details": "1 μM 4OH-tamoxifen or 10^-7 M fulvestrant", "description": "The human breast cancer cell lines ZR-75-1 (ATCC CRL-1500), MDA-MB-231 (ATCC HTB-26) and T47D (ATCC HTB133) were cultured in DMEM supplemented with 10% FCS, 2 mM glutamine, 100 μg/ml penicillin, 100 μg/ml streptomycin, and 1 nM estradiol at 37° C. in 5% CO2. […] Phoenix cells (ATCC CRL-3214) were cultured at 37° C. in 5% CO2 in DMEM with 10% FCS, 2 mM glutamine, 100 μg/ml penicillin, and 100 μg/ml streptomycin.\nCells were infected with retroviral supernatant and selected with puromycin (2.0 μg/ml). […] When colonies appeared, cells were fixed in MeOH/HAc (3:1) and subsequently stained with 50% MeOH/10% HAc/0.1% Coomassie."}, "ERα": {"test_system": "ERα", "test": "ERα ChIP-seq (ERα/chromatin interactions) in ZR-75-1 cells", "type": "cell-based, human", "details": "control ZR-75-1 cells (pRS-GFP), hormone depleted 72 hours, ligand for 48 hours", "experimental": "Chromatin Immunoprecipitations (ChIP) were performed as described before (Schmidt et al., 2009. Methods 48: 240-8). For each ChIP, 10 μg of antibody was used, and 100 μl of Protein A magnetic beads (Invitrogen). The antibody used was raised against ERα (SC-543; Santa Cruz).\nChIP DNA was amplified as described (Schmidt et al., 2009. Methods 48: 240-8). Sequences were generated by the Illumina Hiseq 2000 genome analyser (using 50 bp reads), and aligned to the Human Reference Genome (assembly hg19, February 2009). Enriched regions of the genome were identified by comparing the ChIP samples to mixed input using the MACS peak caller (Zhang et al., 2008. Genome Biol 9: R137) version 1.3.7.1.\nChIP-seq data snapshots were generated using the Integrative Genome Viewer IGV 2.1 (www.broadinstitute.org/igv/). Motif analyses were performed through the Cistrome (cistrome.org), applying the SeqPos motif tool (He et al., 2010. Nat Genet 42: 343-7). The genomic distributions of binding sites were analysed using the cis-regulatory element annotation system (CEAS) (Ji et al., 2006. Nucleic Acids Res 34: W551-4). The genes closest to the binding site on both strands were analysed. If the binding region is within a gene, CEAS software indicates whether it is in a 5′UTR, a 3′UTR, a coding exon, or an intron. Promoter is defined as 3 kb upstream from RefSeq 5′ start. […]"}, "[4]": {"details": "early breast cancer, 5 years of adjuvant treatment"}}, "data": [{"smiles": "C[C@]12CC[C@@H]3c4ccc(O)cc4CC[C@H]3[C@@H]1CC[C@@H]2O", "note": "[estradiol]", "values": [{"measurement": "number of genes with altered expression as compared to vehicle", "setting": "ZR-75-1 cells [1]", "result": 8794, "unit": "genes"}]}, {"smiles": "CC/C(=C(\\c1ccccc1)c1ccc(OCCN(C)C)cc1)c1ccccc1.O=C(O)CC(O)(CC(=O)O)C(=O)O", "note": "[tamoxifen, (Z)2-[4-(1,2-diphenyl-1-butenyl)phenoxy]-N, N-dimethylethanamine 2-hydroxy-1,2,3-propanetricarboxylate (1:1)]", "values": [{"measurement": "rate of disease recurrence", "setting": "[2]; [4]", "result": "almost halves"}, {"measurement": "reduction of annual breast cancer death rate", "setting": "[2]; [4]", "result": "one-third"}, {"measurement": "women who still develop recurrent disease despite adjuvant treatment", "setting": "[2]; in the next 15 years", "result": "one-third"}]}, {"smiles": "C[C@]12CC[C@@H]3c4ccc(O)cc4C[C@@H](CCCCCCCCC[S+]([O-])CCCC(F)(F)C(F)(F)F)[C@H]3[C@@H]1CC[C@@H]2O", "note": "(stereo partly drawn) [fulvestrant, (7α,17β)-7-{9-[(4,4,5,5,5-pentafluoropentyl)sulfinyl]nonyl}estra-1,3,5(10)-triene-3,17-diol]", "values": [{"measurement": "cell proliferation", "setting": "ZR-75-1 cells [3]", "result": "proliferation arrest"}]}, {"smiles": "CC/C(=C(\\c1ccc(O)cc1)c1ccc(OCCN(C)C)cc1)c1ccccc1", "note": "[4OH-tamoxifen]", "values": [{"measurement": "ERα/chromatin interactions", "setting": "ERα", "result": "far less pronounced"}, {"measurement": "number of genes with altered expression as compared to vehicle", "setting": "ZR-75-1 cells [1]", "result": 1906, "unit": "genes"}]}]}
